# Experimental data from EP2567959B1, “6-(4-HYDROXY-PHENYL)-3-STYRYL-1H-PYRAZOLO[3,4-B]PYRIDINE-4-CARBOXYLIC ACID AMIDE DERIVATIVES AS KINASE INHIBITORS” (SANOFI, priority 2011, dated 2013).
# Biological target: T1, human full-length recombinant PKC βII (Homo sapiens, UniProt P05771)
# T1 construct: Active human full-length recombinant PKC βII; purchased Invitrogen GmbH, Darmstadt, Germany
# Test: Determination of PKC βII inhibition (Caliper mobility-shift kinase assay, phosphorylation of fluorescein peptide substrate)
# Type: biochemical
# Conditions: final compound concentration 1.14 µM (±0.15 µM); 60 min incubation at 32 °C
# Method in brief: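 Active full-length PKC βII in pH 7.4 Hepes with MgCl2, CaCl2, PS, DAG and Triton X-100; substrate/ATP mix held 3 µM fluorescein peptide and 120 µM ATP before addition. Reaction ran 60 min at 32 °C, stopped with EDTA. Mobility-shift fractional turnover gave % inhibition at 1.14 µM (±0.15 µM) final compound.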
# T1 sequence (P05771 1-673 isoform P05771-2): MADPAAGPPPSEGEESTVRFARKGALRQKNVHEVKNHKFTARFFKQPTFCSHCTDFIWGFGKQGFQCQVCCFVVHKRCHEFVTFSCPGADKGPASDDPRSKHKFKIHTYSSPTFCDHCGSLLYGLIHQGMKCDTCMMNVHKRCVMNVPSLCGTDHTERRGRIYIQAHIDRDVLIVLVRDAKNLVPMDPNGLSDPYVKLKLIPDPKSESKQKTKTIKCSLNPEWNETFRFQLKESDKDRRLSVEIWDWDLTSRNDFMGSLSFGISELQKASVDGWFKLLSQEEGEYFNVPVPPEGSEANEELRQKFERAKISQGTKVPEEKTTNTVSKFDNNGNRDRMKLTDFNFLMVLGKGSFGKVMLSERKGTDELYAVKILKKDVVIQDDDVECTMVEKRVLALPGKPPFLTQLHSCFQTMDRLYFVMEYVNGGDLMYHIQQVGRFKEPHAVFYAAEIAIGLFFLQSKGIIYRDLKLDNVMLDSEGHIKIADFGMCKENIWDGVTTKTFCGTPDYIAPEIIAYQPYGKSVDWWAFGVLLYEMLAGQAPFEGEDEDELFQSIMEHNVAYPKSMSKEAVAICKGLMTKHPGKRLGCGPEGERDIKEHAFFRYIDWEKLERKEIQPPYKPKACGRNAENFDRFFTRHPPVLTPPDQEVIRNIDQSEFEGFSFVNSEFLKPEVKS
row,Compound,inhibition at 1.14 µM
1,"Cc1ccc(/C=C/c2n[nH]c3nc(-c4ccc(O)cc4)cc(C(=O)N4CCNCC4)c23)c(F)c1 [Example 63, [3-[(E)-2-(2-Fluoro-4-methyl-phenyl)-vinyl]-6-(4-hydroxy-phenyl)-1H-pyrazolo[3,4-b]pyridin-4-yl]-piperazin-1-yl-methanone]",97%
2,"COc1cc(/C=C/c2n[nH]c3nc(-c4ccc(O)cc4)cc(C(=O)N4CCNCC4)c23)cc(OC)c1OC [Example 62, {6-(4-hydroxy-phenyl)-3-[(E)-2-(3,4,5-trimethoxy-phenyl)-vinyl]-1H-pyrazolo[3,4-b]pyridin-4-yl}-piperazin-1-yl-methanone]",98%
3,"O=C(c1cc(-c2ccc(O)cc2)nc2[nH]nc(/C=C/c3cccc(Cl)c3)c12)N1CCNCC1 [Example 48, [3-[(E)-2-(3-Chloro-phenyl)-vinyl]-6-(4-hydroxy-phenyl)-1H-pyrazolo[3,4-b]pyridin-4-yl]-piperazin-1-yl-methanone]",97%
4,"CC[C@H]1CNCCN1C(=O)c1cc(-c2ccc(O)cc2)nc2[nH]nc(/C=C/c3ccccc3)c12 [Example 10, ((S)-2-Ethyl-piperazin-1-yl)-[6-(4-hydroxy-phenyl)-3-((E)-styryl)-1H-pyrazolo[3,4-b]pyridin-4-yl]-methanone]",87%
5,"O=C(c1cc(-c2ccc(O)cc2)nc2[nH]nc(/C=C/c3ccc(Cl)cc3)c12)N1CCNCC1 [Example 1, [3-[(E)-2-(4-Chloro-phenyl)-vinyl]-6-(4-hydroxy-phenyl)-1 H-pyrazolo[3,4-b]pyridin-4-yl]-piperazin-1-yl-methanone]",86%
6,"Cc1ccccc1/C=C/c1n[nH]c2nc(-c3ccc(O)cc3)cc(C(=O)N3CCNCC3)c12 [Example 69, [6-(4-Hydroxy-phenyl)-3-((E)-2-o-tolyl-vinyl)-1H-pyrazolo[3,4-b]pyridin-4-yl]-piperazin-1-yl-methanone]",94%
7,"CS(=O)(=O)c1ccc(/C=C/c2n[nH]c3nc(-c4ccc(O)cc4)cc(C(=O)N4CCNCC4)c23)cc1 [Example 24, {6-(4-hydroxy-phenyl)-3-[(E)-2-(4-methanesulfonyl-phenyl)-vinyl]-1H-pyra-zolo[3,4-b]pyri-din-4-yl}-pipe-razin-1-yl-methanone]",99%
8,"O=C(c1cc(-c2ccc(O)cc2)nc2[nH]nc(/C=C/c3ccccc3C(F)(F)F)c12)N1CCNCC1 [Example 68, {6-(4-Hydroxy-phenyl)-3-[(E)-2-(2-trifluoromethyl-phenyl)-vinyl]-1H-pyrazolo[3,4-b]pyridin-4-yl}-piperazin-1-yl-methanone]",60%
9,"CN1Cc2cc(/C=C/c3n[nH]c4nc(-c5ccc(O)cc5)cc(C(=O)N5CCNCC5)c34)ccc2C1=O [Example 32, 5-{(E)-2-[6-(4-Hydroxy-phenyl)-4-(piperazine-1-carbonyl)-1H-py-razolo[3,4-b]pyri-din-3-yl]-vinyl}-2-methyl-2,3-di-hydro-isoindol-1-one]",99%
10,"CCC(CC)C(=O)N1CCN(C(=O)c2cc(-c3ccc(O)cc3)nc3[nH]nc(/C=C/c4ccccc4)c23)CC1 [Example 80, 2-Ethyl-1-{4-[6-(4-hydroxy-phenyl)-3-((E)-styryl)-1H-pyra-zolo[3,4-b]pyri-dine-4-carbonyl]-piperazin-1-yl}-butan-1-one]",26%
11,"O=C(c1cc(-c2ccc(O)cc2)nc2[nH]nc(/C=C/c3cccc(N4CCOCC4)c3)c12)N1CCNCC1 [Example 27, {6-(4-Hydroxy-phenyl)-3-[(E)-2-(3-morpholin-4-yl-phenyl)-vinyl]-1H-pyrazolo[3,4-b]pyridin-4-yl}-piperazin-1-yl-methanone]",98%
12,"O=C(c1cc(-c2ccc(O)cc2)nc2[nH]nc(/C=C/c3ccc4c(c3)OCO4)c12)N1CCNCC1 [Example 65, [3-((E)-2-Benzo[1,3]dioxol-5-yl-vinyl)-6-(4-hydroxy-phenyl)-1H-pyrazolo[3,4-b]pyridin-4-yl]-piperazin-1-yl-methanone]",97%
13,"CC1(C)CNCCN1C(=O)c1cc(-c2ccc(O)cc2)nc2[nH]nc(/C=C/c3ccccc3)c12 [Example 3, (2,2-Dimethyl-piperazin-1-yl)-[6-(4-hydroxy-phenyl)-3-((E)-styryl)-1 H-pyrazolo[3,4-b]pyridin-4-yl]-methanone]",88%
